{
  "source": "patent US20090143313A1",
  "about": "(priority 2004, published 2009)",
  "origin": "cited, not measured here",
  "key": {"[1]": {"system": "5-FU-immune-suppressed animals", "settings": "in vivo"}, "[2]": {"system": "immunization with sheep red blood cells", "settings": "in vivo"}, "tuberculosis": {"system": "tuberculosis", "settings": "human, in vivo"}},
  "data": [
    {"smiles": "N[C@H](CCC(=O)N[C@@H](Cc1c[nH]c2ccccc12)C(=O)O)C(=O)O", "note": "[SCV-07, γ-D-glutamyl-L-tryptophan]", "values": [
      {"measurement": "Expression of Thy-1.2 on bone marrow cells", "setting": "bone marrow cells", "result": "stimulates"},
      {"measurement": "Immunostimulatory effect", "setting": "[1]", "result": "strong immunostimulatory effect"},
      {"measurement": "Immunostimulatory effect", "setting": "[2]", "result": "strong immunostimulatory effect"},
      {"measurement": "Con-A-induced interleukin-2 (IL-2) production and IL-2 receptor expression by spleen lymphocytes", "setting": "spleen lymphocytes", "result": "increases"},
      {"measurement": "Cavity healing and symptoms of tuberculosis", "setting": "tuberculosis", "result": "positive effect"},
      {"measurement": "Incidence of mycobacteria-negative sputum cultures", "setting": "tuberculosis", "result": "increased"}
    ]}
  ]
}
